Measurements: patent US9580391B2, “Saturated acyl guanidine for inhibition of F1F0-ATPase” (Lycera Corporation, priority 2012, dated 2017)

How the values were obtained:
[1] = molecular target: T1, F1F0-ATPase (Bos taurus, UniProt P13621); assay: Inhibition of F1F0-ATPase activity in synthesizing ATP; format: biochemical; conditions: inhibition of ATP synthesis; read-out: ATP Syn IC50
T1 construct: from tissue
Protocol: (§1) Compounds described in above Examples were tested for activity against F1F0-ATPase by measuring the ability of the compounds to inhibit ATP synthesis. In addition, the compounds were assessed for cytotoxicity in Ramos cells. Inhibition of F1F0-ATPase activity in synthesizing ATP and cytotoxicity in Ramos cells were measured according to the procedures described in K. M. Johnson et al. Chemistry & Biology 2005, 12, 485-496.

[2] = system: Ramos cells; assay: Cytotoxicity in Ramos cells; format: cell-based; conditions: Homo sapiens, read-out: Ramos Cell EC50
Protocol: as §1

IC50 [1] [µM] | Structure (SMILES) | EC50 [2] [µM]
< 5 | O=C(Cc1ccc(Cl)cc1)/N=C(/Nc1cc(F)cc(Cl)c1)Nc1ccc2cn[nH]c2c1 [Compound 3, N-(((1H-Indazol-6-yl)amino)((3-chloro-5-fluorophenyl)amino)methylene)-2-(4-chlorophenyl)acetamide] | 5 to 16
< 5 | CC(C)(C)CC(=O)/N=C(\Nc1cc(-c2ccc(F)cc2)[nH]n1)NC(C)(C)C [Compound 1, (Z)—N-((tert-Butylamino)((5-(4-fluorophenyl)-1H-pyrazol-3-yl)amino)methylene)-3,3-dimethylbutanamide] | 5 to 16
5 to 16 | O=C(/N=C(/Nc1cccc(Cl)c1)Nc1ccc2cn[nH]c2c1)C1CCCCC1 [Compound 2, (E)-N-(((1H-Indazol-6-yl)amino)((3-chlorophenyl)amino)methylene)cyclohexanecarboxamide] | 5 to 16
